These are literature values, as cited in US4195171A, “Derivatives of an antibiotic XK-62-2 and process for the production thereof” (Abbott Laboratories, priority 1975, dated 1980).

For this data set the following is noted: cited from earlier work.

For the molecule `CNCC1CCC(N)C(OC2C(N)CC(N)C(OC3OCC(C)(O)C(NC)C3O)C2O)O1` (centres unmarked) [XK-62-2], the solubility in acetone result (acetone) is “slightly soluble”. Further, for the setting “benzene”, the solubility in benzene result is listed as “insoluble”. Moreover, the solubility in chloroform entry (chloroform) is “insoluble”. Also, the solubility in ethanol result (ethanol) is “slightly soluble”. The “solubility in ethyl acetate” value (ethyl acetate) is given as “insoluble”. For the setting “methanol”, the solubility in methanol result is on record as “freely soluble”. Moreover, the solubility in n-hexane entry (n-hexane) is given as “insoluble”. Moreover, for the setting “water”, the solubility in water result is given as “freely soluble”.
